Measurements published in ChEMBL document CHEMBL1275262, “Stereoselective phosphorylation of cyclopropavir by pUL97 and competitive inhibition by maribavir” (Antimicrob Agents Chemother, 2010).
Active and inactive are the calls of the source. The rule behind the calls is not given here.

Tests used:
Murid betaherpesvirus 1 = assay: Antiviral activity against Murine cytomegalovirus infected in severe combined immunodeficient mouse assessed as reduction in viral load; type: functional
Human betaherpesvirus 5 [1] = assay: Antiviral activity against Human cytomegalovirus infected in severe combined immunodeficient mouse with human fetal tissue implanted assessed as reduction in viral replication; type: functional, organism-based
Human betaherpesvirus 5 [2] = assay: Antiviral activity against Human cytomegalovirus; type: functional, organism-based

| Structure (SMILES) | fold change (FC) (Murid betaherpesvirus 1) | Activity (Human betaherpesvirus 5 [1]) | EC50 (Human betaherpesvirus 5 [2]) [µM] |
| --- | --- | --- | --- |
| Nc1nc2c(ncn2/C=C2/CC2(CO)CO)c(=O)[nH]1 [FILOCICLOVIR] | 2 | Active | – |
| Nc1nc2c(ncn2COC(CO)CO)c(=O)[nH]1 [GANCICLOVIR] | – | – | 4.1 |
